Series [1] deals with Plasmodium falciparum. The series is described as follows: Antiplasmodial activity against Plasmodium falciparum CSL-2 harboring DHFR NRNL haplotype C59R/S108N/I164L triple mutant. Type of series: functional, organism-based.
The test system of series [2] is Plasmodium falciparum. The series is described as follows: Antiplasmodial activity against Plasmodium falciparum V1/S harboring DHFR IRNL haplotype N51I/C59R/S108N/I164L quadruple mutant. Type of series: functional, organism-based.
Another series has as its system Vero. The series is described as follows: Cytotoxicity against African green monkey Vero cells. The series is classed as cell-based. Particulars: chlorocebus sabaeus.
The next series deals with T1, Dihydrofolate reductase (Homo sapiens, UniProt P00374).
T1 sequence (P00374 whole entry): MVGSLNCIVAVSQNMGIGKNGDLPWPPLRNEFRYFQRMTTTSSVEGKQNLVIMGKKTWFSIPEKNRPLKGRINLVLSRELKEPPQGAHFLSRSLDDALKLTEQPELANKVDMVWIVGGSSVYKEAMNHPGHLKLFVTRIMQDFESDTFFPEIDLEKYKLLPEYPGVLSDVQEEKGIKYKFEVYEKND

For series [3], the system named is Plasmodium falciparum. In words: microbe, parasite or virus in culture. The following applies: TM4/8.2.
The test system of series [4] is Plasmodium falciparum. In words: microbe, parasite or virus in culture. Particulars: K1CB1.
Series [5] relates to Plasmodium falciparum. The series is described as follows: microbe, parasite or virus in culture. The following applies: W2.
A short description of series [6]: Solubility of the compound. Type of series: physicochemical.
Series [7] is described as follows: Inhibition of Plasmodium falciparum TM4/8.2 wild type DHFR NCSI haplotype.

From ChEMBL document CHEMBL4325930, “Hybrid Inhibitors of Malarial Dihydrofolate Reductase with Dual Binding Modes That Can Forestall Resistance” (ACS Med Chem Lett, 2018) come the findings set out here.

≈ marks a conversion by molar mass, not a printed value.

`CCc1nc(N)nc(N)c1-c1cccc(Cl)c1`: the concentration for half-maximal inhibition (IC50) in the series with Plasmodium falciparum [1] turned out to be 2.53 µM; in the series on Plasmodium falciparum [2], 9.1 µM; in the series on Plasmodium falciparum [3], 0.42 µM; with Plasmodium falciparum [4], 1.31 µM; with Plasmodium falciparum [5] it was 3.94 µM. For the same molecule, the Activity with Vero was 7 µM. At Dihydrofolate reductase, this molecule showed a Ki of 0.0016 µM.
Consider `Cc1nc(N)nc(N)c1OCCCOc1cc(Cl)c(Cl)cc1Cl`, for which the IC50 with Plasmodium falciparum [2] came to 3.5 µM; in the series with Plasmodium falciparum [3] it was 0.23 µM.
In series [6], `CCc1nc(N)nc(N)c1OCCCOc1ccc(-c2c(N)nc(N)nc2CC)cc1` came in with a solubility of 1 µM (≈ 0.425 µg/mL).
`CCc1nc(N)nc(N)c1-c1ccc(Cl)cc1` [PYRIMETHAMINE] showed a Ki in series [7] of 0.0006 µM. For the same molecule, the IC50 in the series with Plasmodium falciparum [1] is 42 µM; in the series on Plasmodium falciparum [2], > 100 µM.
